Values of other authors, collected in US20110212189A1, “GASTRORETENTIVE ORAL HIGH DOSE ZINC PREPARATIONS” (ADEONA PHARMACEUTICALS, INC., priority 2009, published 2011).

Settings: 50 mg elemental zinc taken with food

## O=S(=O)([O-])[O-].[Zn+2] [zinc sulphate]
  nausea/vomiting effects: same effects have been observed
